Measured values reported in patent US4440757A, “Pharmaceutical composition comprising derivative of aminobenzoic acid for regulating prostaglandin” (priority 1978, dated 1984).
Where two headings read alike, the source gives them in different places.

Tests used:
[1] = system: Salmonella typhimurium TA 98; assay: Mutagenicity, reversion assay, TA 98; format: cell-based
Description: (§1) (ii) The strains TA 98 and TA 100 (both are histidine requiring) of Salmonella typhimurium were used in the reversion assay.
(§2) Into 2 ml of a soft agar culture medium (the medium itself contains 6 g of sodium chloride and 6 g of agar in 1000 ml of distilled water) to which one tenth by volume of an aqueous solution of 0.5 mM of biotin and 0.5 mM of histidine had been added, 0.1 ml of the bacterial suspension and 0.1 ml of an aqueous solution of the present substance were admixed and the mixture was layered on the minimum agar culture medium. After 2 days of incubation at 37° C., the number of revertant colonies was counted. Furylfuramide (AF-2) was used as the positive control.

[2] = system: Salmonella typhimurium TA 100; assay: Mutagenicity, reversion assay, TA 100; format: cell-based
Description: as §1, §2

male Sprague-Dowley rats [3] = assay: Leakage of dye-staff after skin stimulation with histamine and PGE1; format: in vivo; conditions: challenge agents only, no present substance
Description: To the three groups of male Sprague-Dowley rats of the total six groups, the respective present substances (Specimens Nos. 4, 7 and 8) were forcibly administered by oral route at the rate of 1000 mg/kg, the other three groups being administered nothing at this time. After 60 min of the administration, a mixture of PGE1 (2.5×10^-11 mol/animal) and histamine (2×10^-8 mol/animal) was intracutaneously injected under light […] into the shaved skin of an abdominal part of four groups of the rats including three groups administered with the present substance.

Bacillus subtilis M 45 = assay: Mutagenicity, rec-assay, strain M 45; format: cell-based; conditions: 10 μg/disk, negative control
Description: (§3) As the first stage, the present substances were tested by rec-assay (i), and as the second stage, they were tested by reversion assay (ii).
(§4) (i) A strain of Bacillus subtilis M 45, a defectant of recombination repair, and a wild strain of Bacillus subtilis H 17 keeping recombination repair activity were inoculated to make their own streaks not crossed at the start on a B-2 agar culture plate (made by dissolving 10 g of meat extract, 10 g of polypeptone, 5 g of sodium chloride and 15 g of agar in 1000 ml of distilled water at pH 7.0). Then, a paper disc of 8 mm in diameter, which absorbed 0.04 ml of an aqueous solution of the present substance in sterilized water was put on the surface of the agar plate so as to cover the starting point of the above-mentioned streaks of bacterial culture. The inoculated B-2 agar plate was kept at 37° C. for a night and the length of growth-inhibited region was measured.

Bacillus subtilis H 17 = assay: Mutagenicity, rec-assay, strain H 17; format: cell-based; conditions: 10 μg/disk, negative control
Description: as §3, §4

male Sprague-Dowley rats [4] = assay: Foot-oedema induced by carrageenin and PGE1; format: in vivo; conditions: challenge agents only, no present substance; 60 min
Description: The three groups of male Sprague-Dowley rats of total six groups, the respective present substances, Specimens Nos. 4, 7 and 8 were administered forcibly by oral route at a rate of 1000 mg/kg, the other three groups of the same kind of rats being administered nothing at this time.
After 60 min of the administration, 0.1 ml of an aqueous solution of carrageenin (1 mg) and PGE1 (0.1 μg) was injected onto the hind paw of the four groups of the rats including the three groups administered with the present substance. To one group of remaining two groups not administered with the present substance, 0.1 ml of an aqueous solution containing only carrageenin at 1% was injected, and to the other one group not administered with the present substance, an aqueous solution containing only PGE1 was injected.
The volume of the thus swollen foot of the groups of the thus treated rats was measured by the water-displacement method, and the results are shown in Table 17 by the increment of the volume of foot as compared to the volume of foot before the treatment as percentage.

Ehrlich cancer = assay: Cancer proliferation and PGE in the cancer cells (Ehrlich); format: in vivo, C57BL/6 mouse; conditions: 100 mg/kg i.p. every other day, 14th day; for Weight of cancer: control 1.30; for Content of PGE in the cancer: control 1.77
Description: Following the same method as in Example 12, the anti-cancer action against transplanted Ehrlich cancer in C57BL/6 mouse, and the amount of PGE in the cancer cells in proliferation in the living body of the mouse were examined in the cases where each one compound of the present invention, Specimens Nos. 1, 2, 3, 4, 5, 6, 8, 9, 10 and 11 was intraperitoneally administered every other day from the next day of the transplantation in total 6 times at a dosage of 100 mg/kg.
The results of determination of the weight of cancer extirpated from the sacrificed mouse on 14th day of the transplantation of the cancer cells, 1×10^6 in number per animal, and content of PGE of the extirpated cancer are shown in the following Table 13: […]

[5] = Acute oral toxicity (Litchfield-Wilcoxon); conditions: in vivo, mouse, 7 days
Description: The acute oral toxicity of the present substances were examined by using groups of ICR-JCL mouse and orally administering each of the representatives of present substances forcibly as an aqueous solution in distilled water or as an aqueous suspension also in distilled water at predetermined dosages, respectively. After observing the toxicological symptoms, if any, for 6 days, and recording the mortality until 7th day of the administration, LD50 (acute oral) was calculated by the method of Litchfield-Wilcoxon, and autopsy was carried out on dead mice and live mice to obtain informations.

dog's stomach = format: in vivo, Beagle dog
Description: Five grams of the present substance (each of Specimens Nos. 1, 2, 3, 4, 5, 6, 7, 8, 9, 10 and 11) and of aspirin were respectively administered to each Beagle of body weight of 9 to 12 kg as an aqueous suspension in distilled water of adjusted pH of 3, and after 90 min of the administration, the state of hemorrhage in the dog's stomach was examined.

SMILES	Number of revertant colonies TA 98 ([1]; 5,000 μg/plate, control 13)	Weight of cancer (Ehrlich cancer)	Content of PGE in the cancer (Ehrlich cancer)	LD50 at 168 h [5]	Number of revertant colonies TA 100 ([2]; 5,000 μg/plate, control 149)	hemorrhage in the stomach (dog's stomach; dog, in vivo)	also measured
NC(=O)C(=Cc1ccc([N+](=O)[O-])o1)c1ccco1 [Furylfuramide, reference compound]							Number of revertant colonies TA 98 ([1]; 0.1 μg/plate, positive control): 167 number per plate; Number of revertant colonies TA 100 ([2]; 0.1 μg/plate, positive control): 911 number per plate
NCCc1c[nH]cn1 [Histamine, histamine, reference compound]							Absorbance at 620 nm (dye leakage) (male Sprague-Dowley rats [3]): 0.192
NC[C@H]1O[C@H](O[C@H]2[C@H](O)[C@@H](O[C@H]3O[C@H](CO)[C@@H](O)[C@H](N)[C@H]3O)[C@H](N)C[C@@H]2N)[C@H](O)[C@@H](O)[C@@H]1O [Kanamycin]							Length of inhibition growth zone M 45 (Bacillus subtilis M 45): 5 mm; difference (M 45 minus H 17) (Bacillus subtilis M 45): 1 mm; Length of inhibition growth zone H 17 (Bacillus subtilis H 17): 4 mm
CCCCC[C@H](O)/C=C/[C@H]1[C@H](O)CC(=O)[C@@H]1CCCCCCC(=O)O [PGE1, reference compound]							Absorbance at 620 nm (dye leakage) (male Sprague-Dowley rats [3]): 0.066; Percentage increment of volume of foot (male Sprague-Dowley rats [4]): 9.3%
O=C(O)c1ccccc1NC1O[C@H](CO)[C@H](O)[C@H](O)[C@H]1O (stereo partly drawn) [Specimen No. 1, Sodium o-aminobenzoate-N--D-galactoside]	6 number per plate	0.63 g	4.10 ng/g	6100 mg/kg	151 number per plate	no hemorrhage in the stomach was found	
C[C@@H]1OC(Nc2ccccc2C(=O)O)[C@H](O)[C@H](O)[C@H]1O (stereo partly drawn) [Specimen No. 2, Sodium o-aminobenzoate-N--L-rhamnoside]	9 number per plate	0.81 g	3.88 ng/g	12500 mg/kg	61 number per plate	no hemorrhage in the stomach was found	
O=C(O)c1cccc(NC2O[C@H](CO)[C@@H](O)[C@H](O)[C@@H]2O)c1 (stereo partly drawn) [Specimen No. 3, Sodium m-aminobenzoate-N--D-mannoside]	6 number per plate	0.74 g	4.23 ng/g	> 10000 mg/kg	90 number per plate	no hemorrhage in the stomach was found	
O=C(O)c1ccc(NC2O[C@H](CO)[C@@H](O)[C@H](O)[C@H]2O)cc1 (stereo partly drawn) [Specimen No. 5, Sodium p-aminobenzoate-N--D-glucoside]	11 number per plate	0.70 g	3.20 ng/g	> 15000 mg/kg	104 number per plate	no hemorrhage in the stomach was found	
O=C(O)c1ccc(NC2O[C@H](CO)[C@H](O)[C@H](O)[C@H]2O)cc1 (stereo partly drawn) [Specimen No. 6, Sodium p-aminobenzoate-N--D-galactoside]	7 number per plate	0.65 g	3.66 ng/g	14600 mg/kg	51 number per plate	no hemorrhage in the stomach was found	
O=C(O)c1ccc(NC2(CO)OC[C@@H](O)[C@@H](O)[C@@H]2O)cc1 (stereo partly drawn) [Specimen No. 9, Sodium p-aminobenzoate-N--D-fructoside]	5 number per plate	0.80 g	4.32 ng/g	> 10000 mg/kg	95 number per plate	no hemorrhage in the stomach was found	
O=C(O)c1ccc(NC2OC[C@H](O)[C@H](O)[C@H]2O)cc1 (stereo partly drawn) [Specimen No. 10, Sodium p-aminobenzoate-N--L-arabinoside]	3 number per plate	0.70 g	4.14 ng/g	10800 mg/kg	51 number per plate	no hemorrhage in the stomach was found	
COC(=O)c1ccccc1NC1O[C@H](CO)[C@@H](O)[C@H](O)[C@@H]1O (stereo partly drawn) [Specimen No. 11, Methyl o-aminobenzoate-N--D-mannoside]	8 number per plate	0.69 g	4.20 ng/g	> 7500 mg/kg	95 number per plate	no hemorrhage in the stomach was found	
CC(=O)Oc1ccccc1C(=O)O [aspirin, reference compound]							hemorrhage in the stomach (dog's stomach; 5 g, 90 min after administration): hemorrhage in the stomach was observed
